Assay results as given in US20260008758A1, “LINEAR DIPEPTIDYL PEPTIDASE 1 INHIBITORS AND USES THEREOF” (Insmed Incorporated, priority 2024, published 2026).

How the values were obtained:
active mouse DPP1 enzyme = active mouse DPP1 enzyme (Mus musculus (Mouse), UniProt P97821); assay: Mouse DPP1 enzyme IC50 assay; type: biochemical; details: active mouse DPP1, H-Gly-Arg-AMC substrate 400 μM
Description: 25 μL of compound in Assay Buffer plus 5% DMSO was first added to 50 μL of active mouse DPP1 enzyme at a concentration of 62.5 pg/μL and allowed to pre-incubate for 10 minutes at 37° C. after which 50 μL of 1000 μM H-Gly-Arg-AMC substrate (Bachem; St. Torrance, CA) was added, giving final substrate concentration of 400 μM and a final DMSO concentration of 1%. Substrate cleavage was measured for 90 minutes at 37° C., with fluorescence at Excitation/Emission 350/450 nm measured every 5 minutes. DPP1 concentration was interpolated based on its activity relative to a standard curve of recombinant active mouse DPP1 enzyme. IC50 values for each compound were calculated via the XLFit (IDBS Version 5.3.1.3) Add-On to Microsoft Excel using the four parameter fit equation y=(A+((B-A)/(1+((C/x)^D)))), which appears as equation number 205 (4 Parameter Logistic Model or Sigmoidal Dose-Response Model) in XLFit. Default constraints were used for each Parameter.

DPP1 in HL-60 cells = DPP1 in HL-60 cells (Homo sapiens (Human), UniProt P53634); assay: DPP1 Cell IC50 assay; type: cell-based; details: H-Gly-Phe-AFC substrate, 60 min pre-incubation
Procedure, shortened: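 HL-60 cells (5×10^5 live cells/mL in PBS) were pre-incubated with compound in 0.5% DMSO for 60 min at 37 °C, 5% CO2, with shaking, then given 500 μM H-Gly-Phe-AFC solution for 30 min. Fluorescence was read at 400/505 nm. % inhibition was taken against vehicle wells, and IC50 came from a four-parameter logistic fit.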

human DPP1 enzyme = human DPP1 enzyme (Homo sapiens (Human), UniProt P53634); assay: Human DPP1 enzyme IC50 assay; type: biochemical; details: recombinant human DPP1, H-Gly-Arg-AMC substrate 400 μM
Procedure, shortened: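 Fluorogenic readout (350/450 nm, every 5 min over 90 min, 37°C) of H-Gly-Arg-AMC cleavage at 400 μM final substrate. Compounds met activated DPP1 first for a 10-min 37°C pre-incubation in MES buffer pH 6.0 with DTT, 1% DMSO final. Four-parameter sigmoidal fit gave IC50.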

Sequence of active mouse DPP1 enzyme (P97821 25-134): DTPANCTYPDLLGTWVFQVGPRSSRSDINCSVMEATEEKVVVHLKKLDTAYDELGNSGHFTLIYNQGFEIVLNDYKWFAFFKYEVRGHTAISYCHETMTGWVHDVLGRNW
Sequence of active mouse DPP1 enzyme (P97821 231-393): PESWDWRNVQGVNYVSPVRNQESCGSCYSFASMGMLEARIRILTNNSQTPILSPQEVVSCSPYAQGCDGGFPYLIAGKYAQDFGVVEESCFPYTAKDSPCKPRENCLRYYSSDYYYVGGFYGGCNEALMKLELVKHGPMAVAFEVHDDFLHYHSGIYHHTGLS
Sequence of active mouse DPP1 enzyme (P97821 394-462): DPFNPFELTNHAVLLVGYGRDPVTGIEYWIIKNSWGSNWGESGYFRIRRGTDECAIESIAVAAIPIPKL
Sequence of DPP1 in HL-60 cells (P53634 25-134): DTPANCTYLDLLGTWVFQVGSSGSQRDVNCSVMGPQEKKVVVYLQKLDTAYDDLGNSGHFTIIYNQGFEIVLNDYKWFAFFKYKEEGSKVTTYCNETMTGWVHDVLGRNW
Sequence of DPP1 in HL-60 cells (P53634 231-394): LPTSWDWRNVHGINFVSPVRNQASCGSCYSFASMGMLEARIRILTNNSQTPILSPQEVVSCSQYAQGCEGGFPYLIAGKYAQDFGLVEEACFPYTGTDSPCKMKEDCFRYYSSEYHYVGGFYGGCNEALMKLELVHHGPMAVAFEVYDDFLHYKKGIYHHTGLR
Sequence of DPP1 in HL-60 cells (P53634 395-463): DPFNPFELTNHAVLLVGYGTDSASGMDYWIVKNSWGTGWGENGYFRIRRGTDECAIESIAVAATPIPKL
Sequence of human DPP1 enzyme (P53634 25-134): as the sequence (P53634 25-134) above
Sequence of human DPP1 enzyme (P53634 231-394): as the sequence (P53634 231-394) above
Sequence of human DPP1 enzyme (P53634 395-463): as the sequence (P53634 395-463) above

`CN(C)C[C@H](O)C(=O)N[C@H](C#N)Cc1ccc(-c2ccc3oc(=O)n(C)c3c2)cc1` [Compound 101, (2S)—N-[(1S)-1-cyano-2-[4-(3-methyl-2-oxo-1,3-benzoxazol-5-yl)phenyl]ethyl]-3-(dimethylamino)-2-hydroxypropanamide] was tested, and the IC50 (active mouse DPP1 enzyme) was 5 to 20 nM, the IC50 (DPP1 in HL-60 cells) was 1 to 2.5 nM and the IC50 (human DPP1 enzyme) was no less than 15 nM.

In the case of `CN(C)C[C@H](O)C(=O)N[C@H](C#N)Cc1ccc(-c2ccc3c(c2)C2(CN(C)C2)OC3=O)cc1` [Compound 137, (S)—N—((S)-1-cyano-2-(4-(1-methyl-3′-oxo-3′H-spiro[azetidine-3,1′-isobenzofuran]-6′-yl)phenyl)ethyl)-3-(dimethylamino)-2-hydroxypropanamide], the IC50 (active mouse DPP1 enzyme) is reported as no more than 5 nM, the IC50 (DPP1 in HL-60 cells) is reported as no less than 2.5 nM and the IC50 (human DPP1 enzyme) is reported as no less than 15 nM.

`CN(C)C[C@H](O)C(=O)N[C@H](C#N)Cc1ccc(-c2ccc3oc(=O)n(C)c3c2)cc1F` [Compound 138, (2S)—N-[(1S)-1-cyano-2-[2-fluoro-4-(3-methyl-2-oxo-1,3-benzoxazol-5-yl)phenyl]ethyl]-3-(dimethylamino)-2-hydroxypropanamide] was tested, and the IC50 (active mouse DPP1 enzyme) was 5 to 20 nM, the IC50 (DPP1 in HL-60 cells) was no more than 1 nM and the IC50 (human DPP1 enzyme) was 5 to 15 nM.

`CN(C)C[C@H](O)C(=O)N[C@H](C#N)Cc1ccc(-c2ccc3oc(=O)n(CCN4CCOCC4)c3c2)cc1` [Compound 140, (2S)—N-[(1S)-1-cyano-2-(4-{3-[2-(morpholin-4-yl)ethyl]-2-oxo-1,3-benzoxazol-5-yl}phenyl)ethyl]-3-(dimethylamino)-2-hydroxypropanamide] showed an IC50 (active mouse DPP1 enzyme) of 5 to 20 nM, an IC50 (DPP1 in HL-60 cells) of no less than 2.5 nM and an IC50 (human DPP1 enzyme) of no less than 15 nM.

`CC(C)C(N)CC(=O)N[C@H](C#N)Cc1ccc(-c2ccc3oc(=O)n(C)c3c2)cc1` (stereo partly drawn) [Compound 164, 3-amino-N-[(1S)-1-cyano-2-[4-(3-methyl-2-oxo-2,3-dihydro-1,3-benzoxazol-5-yl)phenyl]ethyl]-4-methylpentanamide] gave an IC50 (active mouse DPP1 enzyme) of no less than 20 nM, an IC50 (DPP1 in HL-60 cells) of no less than 2.5 nM and an IC50 (human DPP1 enzyme) of no less than 15 nM.

Compound `C=CC[C@@H](N)CC(=O)N[C@H](C#N)Cc1ccc(-c2ccc3oc(=O)n(C)c3c2)cc1` [Compound 165, (3R)-3-amino-N-[(1S)-1-cyano-2-[4-(3-methyl-2-oxo-2,3-dihydro-1,3-benzoxazol-5-yl)phenyl]ethyl]hex-5-enamide] has an IC50 (active mouse DPP1 enzyme) of no less than 20 nM, an IC50 (DPP1 in HL-60 cells) of no less than 2.5 nM and an IC50 (human DPP1 enzyme) of no less than 15 nM.

For `C=CCC(CN)C(=O)N[C@H](C#N)Cc1ccc(-c2ccc3oc(=O)n(C)c3c2)cc1` (stereo partly drawn) [Compound 167, 2-(aminomethyl)-N-[(1S)-1-cyano-2-[4-(3-methyl-2-oxo-2,3-dihydro-1,3-benzoxazol-5-yl)phenyl]ethyl]pent-4-enamide], the IC50 (active mouse DPP1 enzyme) was no less than 20 nM, the IC50 (DPP1 in HL-60 cells) was no less than 2.5 nM and the IC50 (human DPP1 enzyme) was no less than 15 nM.

`C[C@H](O)[C@@](C)(N)C(=O)N[C@H](C#N)Cc1ccc(-c2ccc3oc(=O)n(C)c3c2)cc1` [Compound 171D, (2R,3S)-2-amino-N-[(1S)-1-cyano-2-[4-(3-methyl-2-oxo-1,3-benzoxazol-5-yl)phenyl]ethyl]-3-hydroxy-2-methylbutanamide] was tested, and the IC50 (active mouse DPP1 enzyme) was 5 to 20 nM, the IC50 (DPP1 in HL-60 cells) was no less than 2.5 nM and the IC50 (human DPP1 enzyme) was 5 to 15 nM.

With `Cn1c(=O)oc2ccc(-c3ccc(C[C@@H](C#N)NC(=O)C[C@H](N)Cc4cccs4)cc3)cc21` [Compound 182, (3S)-3-amino-N-[(1S)-1-cyano-2-[4-(3-methyl-2-oxo-2,3-dihydro-1,3-benzoxazol-5-yl)phenyl]ethyl]-4-(thiophen-2-yl)butanamide] the IC50 (active mouse DPP1 enzyme) was no less than 20 nM, the IC50 (DPP1 in HL-60 cells) was no less than 2.5 nM and the IC50 (human DPP1 enzyme) was no less than 15 nM.

With `Cn1c(=O)oc2ccc(-c3ccc(C[C@@H](C#N)NC(=O)CNC(=O)c4ccco4)cc3)cc21` [Compound 240, N-[(1S)-1-cyano-2-[4-(3-methyl-2-oxo-1,3-benzoxazol-5-yl)phenyl]ethyl]-2-(furan-2-ylformamido)acetamide] the IC50 (active mouse DPP1 enzyme) was no less than 20 nM and the IC50 (human DPP1 enzyme) was no less than 15 nM.

`Cn1c(=O)oc2ccc(-c3ccc(C[C@@H](C#N)NC(=O)CCC#N)cc3)cc21` [Compound 241] gave an IC50 (active mouse DPP1 enzyme) of no less than 20 nM and an IC50 (human DPP1 enzyme) of no less than 15 nM.

For `CC(O)C(=O)N[C@H](C#N)Cc1ccc(-c2ccc3oc(=O)n(C)c3c2)cc1` (stereo partly shown) [Compound 242], the IC50 (active mouse DPP1 enzyme) was no less than 20 nM and the IC50 (human DPP1 enzyme) was no less than 15 nM.

Work on `Cn1c(=O)oc2ccc(-c3ccc(C[C@@H](C#N)NC(=O)COC(=O)c4ccco4)cc3)cc21` [Compound 243, {[(1S)-1-cyano-2-[4-(3-methyl-2-oxo-1,3-benzoxazol-5-yl)phenyl]ethyl]carbamoyl}methyl furan-2-carboxylate] yielded an IC50 (active mouse DPP1 enzyme) of no less than 20 nM and an IC50 (human DPP1 enzyme) of no less than 15 nM.

With `N#Cc1ccc(-c2ccc(C[C@@H](C#N)NC(=O)C3(N)CCOCC3)c(I)c2)cc1` [Compound 248, 4-amino-N-[(1S)-1-cyano-2-{4′-cyano-3-iodo-[1,1′-biphenyl]-4-yl}ethyl]oxane-4-carboxamide] the IC50 (active mouse DPP1 enzyme) was no less than 20 nM, the IC50 (DPP1 in HL-60 cells) was no less than 2.5 nM and the IC50 (human DPP1 enzyme) was no less than 15 nM.

In the case of `CC(O)CNCC(=O)N[C@@H](C#N)Cc1ccc(-c2ccc3oc(=O)n(C)c3c2)cc1` (stereo partly shown) [compound 175], the IC50 (active mouse DPP1 enzyme) is reported as 5 to 20 nM and the IC50 (human DPP1 enzyme) is reported as no less than 15 nM.
